Assay [1] relates to human umbilical vein endothelial cells (HUVECs). Briefly: Tube formation of HUVEC on Matrigel. As to conditions: 50 μM, 8-16 hrs. The format is cell-based. From the text:
The effect of chalcone or its derivatives on human endothelial cells was investigated to evaluate the biological effect of chalcones as MMP inhibitors. Since MMPs are responsible for the degradation of extracellular matrix, chalcone or its derivatives can inhibit the formation of tubular network of vessel, which represent migration and differentiation of endothelial cell. Blood vessel endothelial cells, human umbilical vein endothelial cells (HUVECs), were isolated from freshly obtained cords after cesarean section according to Grants' method (Grants D. S., et al., Cell, 58, pp933-943, 1989). They were identified by immunocytochemical staining with anti-Factor VIII antibody. HUVECs cultured on Matrigel (BD Bioscience, Bedford, Mass., USA) were treated with 50 μM of chalcone or its derivatives, and further incubated at 37° C. for 8-16 hrs. As a control, the procedure was repeated with the solvent of the above compounds.

The test system of a further assay is rat aortic rings. Briefly: Rat aortic ring angiogenesis assay. The format is cell-based, Sprague Dawley rats. As to conditions: day 10; for Microvessel density: control 19.5±1.8. The text has this:
The effect of chalcone or its derivatives on angiogenesis was studied by culturing aortic explants in three-dimensional matrix gels according to the procedure of Kruger and Figg (Clinical Cancer Research 7:1867-1872, 2001). Thoracic aortas were excised from 8-week-old male Sprague Dawley rats and the fibroadipose tissue was removed. The aortas were sectioned into 1-mm-long cross-sections, rinsed with Human Endothelial-SFM (GIBCO), placed on the Matrigel-coated wells, covered with additional 50 ul Matrigel, and allowed to gel for more than 30 min at 37° C., 5% CO2. All the rings were cultured in Human Endothelial-SFM (GIBCO) supplemented with 200 ug/ml of ECGS (Endothelial Cell Growth Supplement, Sigma) as an angiogenesis inducer. Chalcone diluted with ethanol was added to the culture medium at final concentrations of 1 uM and 100 uM. 1% of ethanol only was added to the culture medium as a vehicle control. All assays were performed by using 5 aortic rings per sample. Aortic rings were photographed on day 10. The area of angiogenic sprouting was calculated using Image-Pro Plus software program (Media Cybernetics). Microvessel densities are reported in percent area.

The target of a further assay is T1, MMP-9 (Homo sapiens, UniProt P14780).
T1 construct: made in house; host or cells: Sf21 insect cells, baculovirus (pBlueBac4.5)
Briefly: MMP-9 spectrofluorometric enzyme activity assay. The format is biochemical. As to conditions: 50 μM compound; read-out: MMP-9 activity inhibited. As to the method:
(§1) MMP-1, MMP-2, MMP-9 and MMP-13 were cloned and prepared from insect cells (Sf21 insect cell) by using a Baculovirus system.
(§2) Each cDNA for corresponding MMPs was cloned to a pBlueBac4.5 transfer vector (Invitrogen, Cat no. V1995-20), and then transfected to Sf21 cells with a Bac-N-Blue Transfection Kit (Invitrogen, Cat no. K855-01). Sf21 cells were incubated with a TNM-FH (Sigma, St. Louis, Mo., U.S.A) media containing 10% fetal bovine serum at 27° C., then harvested and re-suspended at a concentration of 10^7 cell/Ml. The cell suspension was incubated with a virus containing the cloned gene for 1 hr at room temperature. Infected Sf21 cells were grown for 72 hrs and the medium was recovered, and the MMP was purified. MMP-2 (GENEBANK No. XM—048244) and MMP-9 (GENEBANK No. XM—009491) were recovered from a gelatin-sepharose affinity column (Sigma, G5384) by eluting with 5% DMSO-containing buffer. […]
(§3) As a control, 2 Ml of reaction buffer (50 mM Tricine, pH 7.5, 10 mM CaCl2, 200 mM NaCl) comprising DMSO, 10 nM of enzyme and 10 μM of substrate was prepared in a cuvette. Fluorescence intensity was measured for 5-10 min at room temperature with a spectrofluorometer.
(§4) 50 μM Chalcone or its derivatives were added to a reaction buffer containing a substrate and enzyme, and fluorescence intensity was measured in the same manner.

A further assay addresses T2, MMP-1 (Homo sapiens, UniProt P03956).
T2 construct: made in house; host or cells: Sf21 insect cells, baculovirus (pBlueBac4.5)
T2 sequence (P03956 100-469): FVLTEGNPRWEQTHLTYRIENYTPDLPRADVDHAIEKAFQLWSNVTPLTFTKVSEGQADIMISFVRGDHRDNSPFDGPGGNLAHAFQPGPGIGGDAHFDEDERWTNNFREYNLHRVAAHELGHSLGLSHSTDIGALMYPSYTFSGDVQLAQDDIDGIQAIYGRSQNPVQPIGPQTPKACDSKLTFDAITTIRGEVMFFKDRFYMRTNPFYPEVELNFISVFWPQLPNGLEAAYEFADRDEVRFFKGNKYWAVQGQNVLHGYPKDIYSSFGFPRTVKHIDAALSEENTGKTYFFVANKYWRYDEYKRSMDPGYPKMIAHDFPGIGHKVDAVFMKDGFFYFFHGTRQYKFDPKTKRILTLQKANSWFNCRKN
Briefly: MMP-1 spectrofluorometric enzyme activity assay. Format: biochemical. To be noted: 50 μM compound; read-out: MMP-1 activity inhibited. As to the method: as §1, §2, §3, §4

For assay [2], the system named is experimentally induced comedones. Briefly: Comedolysis by EIC (experimentally induced comedones) formation. Format: in vivo, New Zealand white rabbits. As to conditions: topical once a day, 3 weeks. From the text: Effects of chalcone on comedolysis were studied using subjects of ten mature New Zealand white rabbits, which were bred to approximately 2 kg of body weight for several weeks. In order to generate EIC, 50% oleic acid in polyethylene glycol was applied to both ears of rabbits for 2 weeks. The experimental agent was applied to the ventral surface near the auditory canal once a day with the tip of a cotton stick. 18 ears of rabbits were divided into three groups, and only one of ethanol-propylene glycol (1:1) (control), 1% chalcone in ethanol-propylene glycol (1:1), or 5% chalcone in ethanol-propylene glycol (1:1) was applied on each groups for 3 weeks. The remaining 2 ears were left untreated. Biopsy specimens were taken at 3 week by punch and specimens were fixed in 10% formalin solution and embedded in paraffin for light microscopic examination. Sections of 5 μm thickness were cut and hematoxylin and eosin stain were performed. Under light microscope, fairly large comedones were formed showing hyperplasia and hyperkeratosis of epithelium in specimen treated with vehicle only. The formation of comedones decreased in specimen treated with 1% or 5% of chalcone.

T1 sequence (P14780 107-707 limits assumed): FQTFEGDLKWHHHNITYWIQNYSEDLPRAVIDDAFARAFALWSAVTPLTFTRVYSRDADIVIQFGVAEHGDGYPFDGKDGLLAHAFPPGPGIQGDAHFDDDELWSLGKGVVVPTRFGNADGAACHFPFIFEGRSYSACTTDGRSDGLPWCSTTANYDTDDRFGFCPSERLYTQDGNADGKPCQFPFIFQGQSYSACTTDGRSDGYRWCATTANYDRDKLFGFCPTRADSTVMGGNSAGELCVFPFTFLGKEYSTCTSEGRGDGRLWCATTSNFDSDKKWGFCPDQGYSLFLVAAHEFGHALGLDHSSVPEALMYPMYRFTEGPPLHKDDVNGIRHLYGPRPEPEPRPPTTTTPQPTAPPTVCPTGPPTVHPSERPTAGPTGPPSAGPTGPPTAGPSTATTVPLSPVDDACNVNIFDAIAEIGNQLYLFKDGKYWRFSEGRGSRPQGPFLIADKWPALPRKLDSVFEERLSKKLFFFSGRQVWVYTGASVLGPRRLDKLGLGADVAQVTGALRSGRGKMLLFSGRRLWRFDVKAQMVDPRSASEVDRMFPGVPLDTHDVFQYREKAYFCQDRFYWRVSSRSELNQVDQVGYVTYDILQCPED

Consider `O=C(/C=C/c1ccccc1)c1ccccc1` [Chalcone], for which, in assay [1], the “Tubular (microvascular) network formation of HUVEC” value is “microvascular network was disconnected”. For the same molecule, the Microvessel density with rat aortic rings (1 uM) is reported as 18.5±1.2 percent area; in the assay on rat aortic rings (100 uM), 1.7±0.1 percent area. For the same molecule, the inhibition at 1 µM in the assay with rat aortic rings (Rattus norvegicus, 240 h, 1 uM, read-out: Inhibition of microvessel formation compared to control) was found to be 5.1%. Further, the inhibition at 100 µM with rat aortic rings (Rattus norvegicus, 240 h, 100 uM, read-out: Inhibition of microvessel formation compared to control) is 91.3%. Also, the inhibition at 50 µM was about 76% at MMP-9 and about 75% at MMP-1. The Formation of comedones entry in assay [2] (1% chalcone in ethanol-propylene glycol (1:1)) and in assay [2] (5% chalcone in ethanol-propylene glycol (1:1)) was “decreased” throughout.

The values above are taken from US7572831B2, “Composition containing chalcone” (Angiolab, Inc., priority 2002, dated 2009).
